For seven molecules, IC50 and melting point results are on record in patent US6352988B2, “Indane or dihydroindole derivatives” (H. Lundbeck A/S, priority 1996, dated 2002).

Structures are written as SMILES.

By IC50 is commonly meant the concentration needed to halve the response being measured. Usually melting point stands for the temperature, or range, at which the solid turns liquid.

For data set [1], the target named is T1, dopamine D4 receptors in cloned human dopamine receptor subtype 4.2 membranes (Homo sapiens, UniProt P21917, DEL271-302).
T1 sequence (P21917 with tags, fused parts or gaps DEL271-302): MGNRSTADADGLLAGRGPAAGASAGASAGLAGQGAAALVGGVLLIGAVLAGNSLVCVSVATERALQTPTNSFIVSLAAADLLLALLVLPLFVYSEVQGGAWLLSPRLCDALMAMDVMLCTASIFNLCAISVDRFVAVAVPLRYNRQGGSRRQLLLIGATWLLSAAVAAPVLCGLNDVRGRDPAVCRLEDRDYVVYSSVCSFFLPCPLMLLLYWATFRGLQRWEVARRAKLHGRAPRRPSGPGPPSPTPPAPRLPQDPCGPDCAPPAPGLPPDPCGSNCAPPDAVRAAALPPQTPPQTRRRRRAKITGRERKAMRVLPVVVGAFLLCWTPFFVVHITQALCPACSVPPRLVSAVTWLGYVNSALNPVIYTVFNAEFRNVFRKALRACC
Put plainly: 3H-YM-09151-2 binding (affinity for dopamine D4 receptors). The settings on record: 3H-YM-09151-2, cloned human D4.2 membranes; * means that the test result is preliminary; read-out: D4-bind. IC50. The protocol:
By this method the inhibition by drugs of the binding of the dopamine D4 antagonist ^3H-YM-09151-2 to dopamine D4 receptors in cloned human dopamine receptor subtype 4.2 membranes is determined in vitro. Accordingly, this is a test for affinity for dopamine D4 receptors. The test is performed using a preparation of cloned dopamine D4 cell membranes CRM-016®, Dupharma A/S, Denmark, in accordance with the product specifications.

`Clc1ccc2c(C3CCN(CC4Cc5ccccc5C4)CC3)c[nH]c2c1Cl` [Compound 21d, 6,7-Dichloro-3-[1-(indan-2-ylmethyl)piperidin-4-yl]-1H-indole] registered a melting point of 141 to 142 °C. Besides, the IC50 in data set [1] was 3.9 nM.
In the same order, the values of `c1ccc2c(c1)CC(CN1CCC(c3c[nH]c4cc5c(cc34)OCO5)CC1)C2` [Compound 21e, 3-[1-(Indan-2-ylmethyl)piperidin-4-yl]-5,6-methylenedioxy-1H-indole] are 187 to 188 °C and 23 nM.
In the same order, the values of `Clc1ccc2c(C3CCN(CCC4Cc5ccccc5C4)CC3)c[nH]c2c1` [Compound 21f, 6-Chloro-3-[1-[2-(indan-2-yl)ethyl]piperidin-4-yl]-1H-indole] are 155 to 156 °C and 3.2 nM.
As to `Clc1ccc2c(C3CCN(CCCC4Cc5ccccc5C4)CC3)c[nH]c2c1` [Compound 21g, 6Chloro-3-[1-[3-(indan-2-yl)propan-1-yl]piperidin-4-yl]-1H-indole], the melting point lay within 134 to 135 °C. Besides, in data set [1], the IC50 came out at 7.2 nM.
In the same order, the values of `Clc1ccc2c(C3CCN(CCCCC4Cc5ccccc5C4)CC3)c[nH]c2c1` [Compound 21h, 6-Chloro-3-[1-[4-(indan-2-yl)butan-1-yl]piperidin-4-yl]-1H-indole] are 139 to 140 °C and 14 nM.
For `C1=C(c2cc3ccccc3[nH]2)CCN(CCC2Cc3ccccc3C2)C1` [Compound 28c, 2-[1-[2-(Indan-2-yl)ethyl]-1,2,3,6-tetrahydropyridin-4-yl]-1H-indole], the melting point is 175 to 176 °C. For the same molecule, in data set [1], the IC50 is 13 nM.
In the same order, the values of `c1ccc2c(c1)CC(CCN1CCC(n3ccc4ccccc43)CC1)C2` [Compound 29b, 1-[1-[2-(Indan-2-yl)ethyl]piperidin-4-yl]-1H-indole] are 80 to 81 °C and 2.2 nM.
